Assay type: physicochemical
Text: The slurry should be thoroughly agitated during preparation with a suitable device (like an electric lab stirrer). The desired temperature for heating the slurry will vary depending on the solubility of the active agent and the temperature that the active agent begins to degrade.

temperature dependent solubility in water: greater than 60 °C
SMILES: Cl.N[C@H]1C(O)O[C@H](CO)[C@@H](O)[C@@H]1O (stereo partly shown) [Glucosamine HCl]

Source: patent US20080268036A1, “Co-processing of active pharmaceutical/nutraceutical ingredients” (JRS Pharma, priority 2007, published 2008)
